Measurements published in ChEMBL document CHEMBL5625250, “Discovery of novel flavonoid-based CDK9 degraders for prostate cancer treatment via a PROTAC strategy” (Eur J Med Chem, 2023).
Values after ≈ are worked out from the molar mass of the structure shown. Active and inactive are the calls of the source. No cut-off for these calls is given here.

Legend:
[1] = Solubility of the compound in water at pH 7.4 by shake flask method; format: physicochemical
[2] = tested on: CWR22R; experiment: Antiproliferative activity against human 22Rv1 cells assessed as reduction in cell viability incubated for 72 hrs by SRB assay; format: functional, cell-based; conditions: 22Rv1, 72 h
[3] = Solubility of the compound in water at pH 6.0 by shake flask method; format: physicochemical
[4] = biological target: Cyclin-dependent kinase 9 (Homo sapiens, UniProt P50750); experiment: Inhibition of CDK9 (unknown origin) at 20 nM in presence of ATP by ADP-Glo kinase assay relative to control
Sequence of Cyclin-dependent kinase 9 (P50750 whole entry): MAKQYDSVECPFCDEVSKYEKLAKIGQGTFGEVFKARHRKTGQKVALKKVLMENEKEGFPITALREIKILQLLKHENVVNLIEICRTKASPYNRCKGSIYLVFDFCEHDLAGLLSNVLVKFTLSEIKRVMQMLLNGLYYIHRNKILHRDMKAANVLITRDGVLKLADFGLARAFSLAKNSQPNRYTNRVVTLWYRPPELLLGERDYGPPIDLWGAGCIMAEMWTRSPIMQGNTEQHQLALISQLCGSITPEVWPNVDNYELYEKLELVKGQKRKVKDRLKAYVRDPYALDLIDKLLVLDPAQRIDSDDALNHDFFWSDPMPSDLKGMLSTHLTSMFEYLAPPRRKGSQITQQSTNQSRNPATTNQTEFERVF

[5] = biological target: T1, Protein cereblon/Cyclin-dependent kinase 9 (Homo sapiens, UniProt P50750+Q96SW2); experiment: PROTAC activity at CRBN/CDK9 in human 22Rv1 cells assessed as degradation of CDK9 protein at 20 nM incubated for 12 hrs by Western blotting analysis relative to control; format: cell-based
T1 sequence (P50750 whole entry, looked up): as the sequence (P50750 whole entry) above
T1 sequence (Q96SW2 whole entry, looked up): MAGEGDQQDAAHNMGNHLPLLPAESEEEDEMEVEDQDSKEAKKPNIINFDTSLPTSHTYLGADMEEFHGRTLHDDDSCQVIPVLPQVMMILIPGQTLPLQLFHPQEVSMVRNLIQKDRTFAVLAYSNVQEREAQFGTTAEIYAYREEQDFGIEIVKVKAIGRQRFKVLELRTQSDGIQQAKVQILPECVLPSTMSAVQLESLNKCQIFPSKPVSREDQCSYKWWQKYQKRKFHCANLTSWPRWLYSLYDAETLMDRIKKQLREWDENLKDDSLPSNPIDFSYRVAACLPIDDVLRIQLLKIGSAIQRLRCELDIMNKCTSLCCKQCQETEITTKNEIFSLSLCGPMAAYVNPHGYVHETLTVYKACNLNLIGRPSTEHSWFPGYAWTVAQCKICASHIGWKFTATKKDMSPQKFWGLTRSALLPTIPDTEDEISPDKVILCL

[6] = biological target: T1, Protein cereblon/Cyclin-dependent kinase 9; experiment: PROTAC activity at CRBN/CDK9 in human 22Rv1 cells assessed as degradation of CDK9 protein at 100 nM incubated for 12 hrs by Western blotting analysis; format: cell-based

Row | SMILES | solubility thermodynamic [1] | IC50 [2] | solubility thermodynamic [3] | inhibition [4] | Activity [5] | Activity [6]
1 | COc1cc(O)c2c(=O)cc(-c3ccc(N4CCN(CC5CCN(c6cccc7c6C(=O)N(C6CCC(=O)NC6=O)C7=O)CC5)CC4)cc3)oc2c1C1=CCN(C)CC1 (centres undefined) | 41 µg/mL (≈ 51.2 µM) | 70 nM | 193 µg/mL (≈ 241 µM) | 89.3% | – | –
2 | COc1cc(O)c2c(=O)cc(-c3ccc(N4CCN(C(=O)C5CCN(c6ccc7c(c6)C(=O)N(C6CCC(=O)NC6=O)C7=O)CC5)CC4)cc3)oc2c1C1=CCN(C)CC1 (centres undefined) | 21 µg/mL (≈ 25.8 µM) | 20 nM | < 10 µg/mL | 90.4% | > 50% | –
3 | COc1cc(O)c2c(=O)cc(-c3ccc(N4CCN(C(=O)CCCCOc5cccc6c5C(=O)N(C5CCC(=O)NC5=O)C6=O)CC4)cc3)oc2c1C1=CCN(C)CC1 (centres undefined) | < 10 µg/mL | 860 nM | < 10 µg/mL | 74.2% | – | Active
